Reference: the NIST ThermoML archive (doi:10.1016/j.jct.2005.07.015)
± gives the expanded uncertainty stated by the source.

Details: Liquid, Closed cell (Static) method

CCO [ethanol]
Details | vapor or sublimation pressure [kPa]
298.15 K | 7.878 ± 0.023
303.15 K | 10.47 ± 0.027
308.15 K | 13.77 ± 0.034
313.15 K | 17.91 ± 0.042
318.15 K | 23.07 ± 0.052
323.15 K | 29.46 ± 0.063
